Paper PMC10518717, “High-Throughput Screening and Proteomic Characterization of Compounds Targeting Myeloid-Derived Suppressor Cells” (Molecular & Cellular Proteomics : MCP, 2023)

Test system: NUP-MDSC
Assay: Global proteome expression profiling of compound-treated NUP-MDSC (TMT LC-MS/MS)
Type: cell-based, mouse
Conditions: for log2 FC cmpd2/cmpd3: cmpd2 versus cmpd3, NUP-MDSC; for normalized reporter intensities R1: replicate R1, compound-treated NUP-MDSC; for normalized reporter intensities R3: replicate R3, compound-treated NUP-MDSC
Procedure: After treatments, medium was removed, cells were washed twice with PBS, and the cell pellets were further subjected to proteomic sample preparation.
The cell pellet was reconstituted in 2% SDS in 50 mM Tris–HCl pH 7.5 and lysed by heating to 95 °C for 10 min. One microliter of 100% TFA was added to each sample to hydrolyze DNA, and the pH was subsequently adjusted to 8.5 with 3 M Tris solution. Disulfide bonds were reduced with 10 mM DTT for 45 min at 37 °C, followed by alkylation of cysteines with 55 mM CAA for 30 min at room temperature. Prior to tryptic digestion, the detergent was removed from lysates by SP3 cleanup on an Agilent BRAVO system (Agilent Technologies), following the protocol first described by Hughes et al. ([34]). Briefly, lysate containing 200 μg of protein was mixed with SP3 beads, and proteins were precipitated onto a 50:50 mixture of Sera-Mag Speed Bead types A and B (Thermo Fisher Scientific) in 58% acetonitrile. Beads were washed three times with 80% ethanol in water and once with acetonitrile. Tryptic digest was performed in 100 μl of digestion buffer (2 mM CaCl2 in 25 mM Hepes, pH 8.5) with a 1:50 enzyme-to-protein ratio. Bead-precipitated proteins were digested at 37 °C overnight. On the next day, the supernatant of each sample was transferred to a new well and vacuum dried.
Dried peptides were reconstituted in water and labeled with the respective TMT10plex-labeling reagent as described previously ([35]) with a protein to tandem mass tag (TMT) reagent ratio of 1:2. Labeled samples were pooled, vacuum dried, and reconstituted in 0.1% formic acid (FA) prior to desalting on SepPAC50 columns (waters corp.). Peptides were fractionated using a Dionex Ultra 3000 HPLC system with a Waters XBridge BEH130 C18 3.5 um 2.1 × 250 mm column as described previously ([36]). Ninety-six fractions were collected and pooled to 48. For the full proteome analysis, one fifth of each fraction was transferred to a new 96-well plate and both plates were vacuum dried. For the phosphopeptide analysis, dried peptides were reconstituted in 55 μl 0.1% TFA in 30% ACN, pooled from 48 to 12 fractions, and mixed with 70 μl priming buffer (0.1% TFA, 100% ACN). Phosphopeptides were enriched from each of the 12 fractions using Fe(III)-IMAC-NTA cartridges on the AssayMAP BRAVO (Agilent Technologies) platform as described previously ([36]). Phosphopeptides were eluted with 60 μl 1% ammonia, vacuum dried, and stored at −20 °C prior to LC-MS/MS analysis.
The Fusion Lumos was operated in data-dependent acquisition and positive ionization mode. Samples were measured employing a MS3 method. In brief, full scan MS1 spectra were recorded in the orbitrap (OT) from 360 to 1560 m/z at 60,000 resolution using an automatic gain control (AGC) target value of 4e5 charges and a maximum injection time (maxIT) of 50 ms. Iontrap-MS2 spectra for peptide identification were acquired using higher energy collision dissociation (HCD) fragmentation with 32% normalized collision energy (NCE), an isolation window of 0.6 m/z, and an AGC target value of 1.2e4 charges. To obtain quantitative information on TMT reporter ions, each peptide precursor was fragmented again as for MS2 analysis followed by synchronous selection of the up to eight most intense peptide fragments in the iontrap ([37]) and further fragmentation via HCD using a NCE of 55%. The MS3 scan was recorded in the OT at 50,000 resolution (scan range 100–1000 m/z, isolation window of 1.2 m/z, AGC of 1e5 charges, maxIT of 86 ms). The cycle time was 1.2 s, and the dynamic exclusion lasted for 50 s.
Peptide, protein, and phosphorylation site identification and quantification were performed with MaxQuant software (v. 1.6.3.3, https://www.maxquant.org/) with standard settings for reporter ion MS3 unless described otherwise ([39]). Isotope impurities of the TMT lot were specified to allow MaxQuant the automated correction of TMT intensities. […]

[1] = protein 0610011F06Rik / Mettl26 (Q9DCS2)
[2] = protein 0610037L13Rik / Czib (Q8BHG2)
[3] = protein Trappc2 (Q8R3W2;Q9CQP2)

| SMILES | expression of proteins associated with detoxification by peroxiredoxin and further ROS-reducing proteins (Prdx1, Txnrd1, Srxn1, Cat, Nqo1, Blvrb) (3xEC50, 72 h, relative to compound 3 at 10 μM) | log2 FC cmpd2/cmpd3 [1] | normalized reporter intensities R1 [1] | normalized reporter intensities R3 [1] | log2 FC cmpd2/cmpd3 [2] | normalized reporter intensities R1 [2] | normalized reporter intensities R3 [2] | log2 FC cmpd2/cmpd3 (protein Bap18 (D3Z687;Q9DCT6)) | normalized reporter intensities R1 (protein Bap18 (D3Z687;Q9DCT6)) | normalized reporter intensities R3 (protein Bap18 (D3Z687;Q9DCT6)) | log2 FC cmpd2/cmpd3 [3] | normalized reporter intensities R1 [3] | normalized reporter intensities R3 [3] |
| --- | --- | --- | --- | --- | --- | --- | --- | --- | --- | --- | --- | --- | --- |
| CCOC(=O)c1nnn(-c2nn3nnnc3c3ccccc23)c1C [compound 2] | upregulated | -0.03832 | 20.3044 | 20.1769 | -0.06333 | 20.0663 | 19.9557 | -0.2777 | 16.8475 | 16.9614 | -0.004852 | 18.4905 | 18.3959 |
| c1ccc2c(c1)c(-n1ccnc1)nn1nnnc21 [compound 3] | – | – | 20.3551 | 20.1713 | – | 20.1036 | 20.057 | – | 17.1673 | 17.2868 | – | 18.5332 | 18.3626 |
